Key:
Settings in all cases: after 15 washes
[1] = Example 2B: azo dye in multicomponent kit (isocyanate / OH silicone), color result and wash fastness
Method: (§1) Pretreatment to Apply Cationic Polymer (PEI, Polyethylenimine) on the Hair Fiber Surface: • 1 ml of PEI solution (0.5% aqueous solution of PEI (MW: 75 kDa) is applied on the hair strand. • The hair strand is dried via blow-dryer, followed by further drying at 40° C. in the oven.
100 mg azo dye are mixed with 300 mg isocyanate polymer (Silmer NCO DI50); 9.4 g 2,2,4,6,6-pentamethylheptane are added and the mixture is well shaked.
Subsequently, 200 mg OH Silicone (Silmer OHT C-50) are added to the reaction mixture. The mixture is stirred at room temperature for 5 min.
(§2) 1 g of the above prepared formulation is applied on a pre-treated hair tress (as described above) and the polymers are allowed to react to start forming a film immobilizing the added dye. After removing the excess of the formulation, the film forming reaction is completed as the hair tress is dried via a heat blower.

[2] = Example 2C: azo dye in multicomponent kit (silicone & carbon-hybrid system), color result and wash fastness
Method: as §1
100 mg azo dye are mixed with 400 mg isocyanate polymer (Melio 09-S-11); 9.3 g 1-Methoxy-2-propanol are added and the mixture is well shaked.
Subsequently, 200 mg OH Silicone (Silmer OHT C-50) are added to the reaction mixture. The mixture is stirred at room temperature for 5 min. 1 g of the above prepared formulation is applied on a pre-treated hair tress (as described above) and the polymers are allowed to react to start forming a film immobilizing the added dye. After removing the excess of the formulation, the film forming reaction is completed as the hair tress is dried via a heat blower.

[3] = Example 2A: azo dye in multicomponent kit (Michael addition), color result and wash fastness
Method: as §1
100 mg azo dye is suspended in 1 g THF, and 8.4 g Isododecane (2,2,4,6,6-pentamethylheptane) solution are added as solvent. Subsequently, 200 mg Silmer OH ACR DI-10 polymer (acrylate derivative) and 300 mg Silamine 2972 is added to the reaction mixture. The mixture is stirred at room temperature for 5 min.
as §2

## CCN(CCO)c1ccc(/N=N/c2nc(Cl)c(C=C3C(=O)c4ccccc4C3=O)s2)cc1 [blue azo, 2-{[4-chloro-2-((E)-{4-[ethyl(2-hydroxyethyl)amino]phenyl}diazenyl)-1,3-thiazol-5-yl]methylidene}-1H-indene-1,3(2H)-dione]
[1]
  color remains to an extent of: 90%
[2]
  color remains to an extent of: 80%
[3]
  color remains to an extent of: 80%

## CCN(CCO)c1ccc(/N=N/c2nc(N3CCN(C)CC3)c(C=C3C(=O)c4ccccc4C3=O)s2)cc1 [black azo, 2-[[2-[(E)-[4-[ethyl(2-hydroxyethyl)amino]phenyl]azo]-4-(4-methylpiperazin-1-yl)thiazol-5-yl]methylene]indane-1,3-dione]
[1]
  color remains to an extent of: 50%
[2]
  color remains to an extent of: 80%
[3]
  color remains to an extent of: 30%
